This passage reports EC50, IC50 and outcome results from PubChem BioAssay AID179 (DTP/NCI, 2004).

By EC50 is commonly meant the concentration needed to bring the measured effect to its halfway point. The term IC50 denotes the concentration that gives 50% inhibition. A low value points to greater potency in that assay.

The source made the active and inactive calls.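 The calls were made as follows: active = compounds giving half or more protection of infected cells from virus-caused growth loss, again on retest; inactive = the rest.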

For the experiment, the system named is CEM cells HIV-1 protection, formazan growth assay. Put plainly: NCI AIDS Antiviral Assay. Particulars: for IC50: measured here: growth of uninfected CEM cells. In short, it runs like this:
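Steps: treat uninfected and HIV-1-infected human CEM cells at five drug levels; quantify growth by soluble formazan; retest any compound reaching 50% protection; classify actives from the retest.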

Regarding `C=C=C(Sc1ccccc1)C(C)(C)O`, the EC50 is above 251 µM and the half-maximal inhibitory concentration (IC50) came out at 158 µM. Regarding `O=P1(c2ccccc2)C(c2ccccc2)CCC1c1ccccc1` (stereo not drawn), the EC50 was above 200 µM and the IC50 was found to be 85.1 µM. For the compound `CCOC(=O)/C=C/C1(CCOC(C)=O)CCCCC1`, the EC50 was above 200 µM and the IC50 is 174 µM.

In the case of `CC12ON=C(c3ccccc3)N1C=CN1C(c3ccccc3)=NOC12` (stereo not drawn), the EC50 is above 200 µM and the half-maximal inhibitory concentration (IC50) is above 200 µM. Regarding `CCOC(=O)/C(=C/n1c(=S)[nH]c2ccc([N+](=O)[O-])cc21)C(=O)c1ccccc1`, the EC50 is above 200 µM and the concentration for half-maximal inhibition (IC50) was found to be 141 µM. Turning to `CCCCON1C[C@@H](O)C(O)[C@@H](O)C1` (stereo partly drawn), the EC50 is above 200 µM and the half-inhibitory concentration (IC50) was above 200 µM. On to `C=C1c2nc3ccccc3n2C=C(c2ccc(C)cc2)N1c1ccccc1`, for which the EC50 is above 200 µM and the IC50 was 1.35 µM. For the compound `COc1ccccc1C1OC(c2ccccc2OC)C2CCN(C)C2(C)O1` (stereo not drawn), the EC50 was above 200 µM and the IC50 is above 200 µM. On to `CCCCOP(C)(=O)C(NC(=O)OCC)(C(F)(F)F)C(F)(F)F` (stereo not drawn), for which the EC50 was above 200 µM and the IC50 is above 200 µM. Consider `COc1ccc2ccc3c(c2c1)CN1CCc2cc(OC)c(OC)cc2C1C3` (stereo not drawn), for which the outcome was inactive.

`Cc1cc(NC(=O)C(=O)Cc2cnc3ccccc3n2)c(S(=O)(=O)O)cc1Cl`: the EC50 is above 589 µM and the IC50 was above 589 µM.

As to `COc1ccc(/C=C(\C#N)c2ccc(C)cc2)cc1OC`, the EC50 was above 200 µM and the half-inhibitory concentration (IC50) is 33.1 µM. For `Cc1cc(O)c2c3c1C(=O)Oc1c(CO)c(O)c(C(=O)O)c(c1O3)C=NN=Cc1c3c(c(CO)c(O)c1C(=O)O)OC(=O)c1c(C)cc(O)c(c1O3)C=NN=C2`, the result was inactive.

`CN[C@@H](C)[C@H](NC)c1ccccc1`: the result was inactive. As to `COc1ccc2c(c1)C(c1ccc3ccccc3c1)OC2=O` (stereo not drawn), the EC50 was above 46.8 µM and the IC50 is 7.41 µM.

Regarding `COP(=O)(/C=C/c1cc(C(=O)OCc2ccccc2)n(S(=O)(=O)c2ccccc2)c1)OC`, the EC50 was 145 µM and the IC50 is above 200 µM. `Cc1ccc(C2=NO[C@@H]3C(=O)N(c4ccc(Cc5ccc(N6C(=O)[C@H]7C(c8ccc(C)cc8)=NO[C@H]7C6=O)cc5)cc4)C(=O)[C@H]23)cc1`: the EC50 is above 11.5 µM and the IC50 was above 11.5 µM. Turning to `N#Cc1c(N2CCCC2)[nH]c(=O)n(-c2ccccc2)c1=S`, the EC50 is above 200 µM and the IC50 was above 200 µM. In the case of `CC1(C)N=C(c2ccccn2)C(c2ccccn2)=NC1(C)C`, the EC50 was above 851 µM and the IC50 amounted to 661 µM. `CCN(CC)C(=S)N/N=C(\C)c1cccc(C)n1`: the EC50 is above 2 µM and the IC50 was found to be 0.0132 µM. Regarding `Cc1cc(S(=O)(=O)NC2=NC(c3ccccc3)c3ccccc3N2)c(S)cc1Cl` (stereo not drawn), the EC50 is above 200 µM and the IC50 is above 200 µM. On to `O=C1NC2CC=CCC12` (stereo not drawn), for which the EC50 was above 2040 µM and the IC50 was above 2040 µM. Consider `O=[N+]([O-])c1ccc(OCc2nnc(CCCCCCCCc3nnc(COc4ccc([N+](=O)[O-])cc4)o3)o2)cc1`, for which the EC50 was above 200 µM and the IC50 is above 200 µM.

With `COc1ccc(/C=C(\C)C=C(C#N)C#N)cc1`, the EC50 was above 44.7 µM and the IC50 was found to be 34.7 µM.

For `CN1C2CCC1/C(=C/c1cccc3c1OCO3)C(=O)/C2=C\c1cccc2c1OCO2`, the EC50 was above 6.76 µM and the IC50 is above 6.76 µM. For `CC(=O)OCC1OC(n2c(=O)[nH]c(=O)c3sccc32)C(Br)C1OC(C)=O` (stereo not drawn), the EC50 was above 200 µM and the half-inhibitory concentration (IC50) is above 200 µM. For `COc1ccc(SCc2cc(OC)c(OC)c(OC)c2)cc1OC`, the EC50 was above 200 µM and the IC50 worked out at 45.7 µM. On to `O=C(O)c1ccc(CS(=O)(=O)c2ccc(Cl)cc2)c([N+](=O)[O-])c1`, for which the EC50 was above 708 µM and the IC50 was found to be 324 µM.

`O=c1c(SCc2ccc(Cl)cc2)c(SCc2ccc(Cl)cc2)cnn1-c1ccccc1`: the EC50 is above 14.8 µM and the IC50 was found to be 3.98 µM.

In the case of `CC(=O)Oc1c(Cl)cc(C(=CCC[C@H]2CC[C@@]3(C)[C@@H](CC[C@@H]4[C@@H]3CC[C@]3(C)[C@@H]([C@H](C)CCCC(C)C)CC[C@@H]43)C2)c2cc(Cl)c(OC(C)=O)c(C(=O)O)c2)cc1C(=O)O`, the EC50 was 162 µM and the IC50 came to 174 µM. The corresponding values for `COc1ccc(SSc2ccc(OC)n[n+]2[O-])[n+]([O-])n1` are above 200 µM and 1 µM. Take `Cc1ccc(C2[C@H]3C(=O)N(c4ccc(Cc5ccc(N6C(=O)[C@@H]7ON(c8ccccc8)C(c8ccc(C)cc8)[C@@H]7C6=O)cc5)cc4)C(=O)[C@H]3ON2c2ccccc2)cc1` (stereo partly drawn): the EC50 is above 6.76 µM and the IC50 was above 6.76 µM.

For `O=C(O)CCC(=O)N1c2ccccc2CC1c1c[nH]c2ccccc12` (stereo not drawn), the EC50 is above 741 µM and the concentration for half-maximal inhibition (IC50) amounted to 158 µM. As for `O=c1oc2ccccc2c(O)c1C(C/C(CCN1CCCC1)=N/O)c1ccccc1` (stereo not drawn), the EC50 was above 42.7 µM and the half-inhibitory concentration (IC50) was above 42.7 µM. On to `CO[C@@]12CC(=O)/C(=C(O)\C=C\c3ccccc3)C(=O)[C@]1(O)Cc1ccccc1O2`, for which the EC50 is above 316 µM and the half-maximal inhibitory concentration (IC50) came out at 42.7 µM. On to `Cc1cc(C)c2cc(N)c(Cl)nc2n1`, for which the EC50 was above 200 µM and the IC50 came out at 145 µM. On to `O=P(O)(OCCc1ccccc1)Oc1ccccc1O`, for which the EC50 is above 200 µM and the concentration for half-maximal inhibition (IC50) is above 200 µM.

Turning to `CC(C)CCn1nc(N)c2nc3ccccc3nc21`, the EC50 was above 200 µM and the IC50 stood at 112 µM. With `O=C(O)CCCc1ccc2c(c1)CC1(C2)Cc2ccc(CCCC(=O)O)cc2C1`, the EC50 is above 200 µM and the IC50 turned out to be 141 µM.

Turning to `N/N=c1\c2ccccc2c2ccc3c4ccccc4/c(=N\N)c3c12`, the EC50 was above 11.5 µM and the IC50 was above 11.5 µM.

Consider `CC1CC(=O)N(N(C)C)C(C#N)(C#N)C1(C#N)C#N` (stereo not drawn), for which the EC50 is above 200 µM and the IC50 amounted to 3.16 µM. Regarding `Cc1c(-c2ccccc2)cc(O)c2nc3ccccc3n12`, the EC50 was above 200 µM and the IC50 was 19.5 µM.

Turning to `c1onc2c1CCCC2` (tested in a mixture with another compound), the EC50 was above 1620 µM and the IC50 was above 1620 µM. As for `CCCc1nn(C)c(CCC(=O)N(Cc2ccccc2)Cc2ccccc2)c1CC`, the result was inactive. `COC(=O)[C@H]1ON2O[C@@H](O[C@H]3CCCC[C@@H]3C(C)(C)c3ccccc3)C[C@@H]3CC[C@H]1[C@@]32C`: the EC50 is above 200 µM and the IC50 is above 200 µM. For the compound `Cc1cn(CC2=NCC(C)(C)CN2)c(=O)[nH]c1=O`, the EC50 is above 200 µM and the concentration for half-maximal inhibition (IC50) is above 200 µM. For the compound `Cc1ccc(C(=O)/C=C/c2ccco2)cc1`, the EC50 is above 170 µM and the half-inhibitory concentration (IC50) is 53.7 µM.

Turning to `C/C(=N\N)C(CN1CCCCC1)C(c1ccccc1)c1c(O)c2ccccc2oc1=O` (stereo not drawn), the EC50 was above 107 µM and the IC50 was 69.2 µM. For `C=CCSc1nn(CC=C)cc2ncnc1-2`, the EC50 is above 200 µM and the IC50 is above 200 µM.

For the compound `OCC1CC(F)C(n2cnc3c(NC4CC4)ncnc32)O1` (stereo not drawn), the EC50 was above 200 µM and the IC50 is above 200 µM. Turning to `O=[N+]([O-])c1cccnc1NCC1(CO)CC(Cc2ccccc2)C1` (stereo not drawn), the EC50 was above 200 µM and the IC50 was 110 µM.

Consider `O=C(Cc1ccccc1)NN1C(=O)/C(=C\c2ccccc2O)SC1=Nc1ccccc1`, for which the EC50 was above 219 µM and the IC50 was 174 µM. The matching figures for `COc1c(C2=NC(C(C)C)CO2)ccc2ccccc12` (stereo not drawn): above 186 µM and 20.9 µM. In the case of `O=C(O)c1ccccc1CC(Cc1ccccc1)C(=O)O` (stereo not drawn), the EC50 is above 200 µM and the IC50 is 126 µM. Consider `CN(C)CCCNc1cc[n+](C)c2cccc([N+](=O)[O-])c12`, for which the EC50 was above 200 µM and the IC50 came out at 10.5 µM. `O=C(O)CNC(=O)C(CSC(=O)OCC1c2ccccc2-c2ccccc21)NC(=O)CCC(NC(=O)OCC1c2ccccc2-c2ccccc21)C(=O)O` (stereo not drawn): the EC50 was above 200 µM and the IC50 came to 107 µM. In the case of `COc1cc2cc(C(=O)N3CC(CCl)c4c3cc([N+](=O)[O-])c3ccccc43)[nH]c2c(OC)c1OC` (stereo not drawn), the EC50 was above 10 µM and the IC50 came to 2.4 µM. As for `O=C1CCCSCCCC(=O)CCCSCCC1`, the EC50 is above 34.7 µM and the IC50 was above 34.7 µM. Turning to `CCOC(=O)Nn1c(C)cc(C(=O)OC)c1C`, the outcome was inactive. As to `Cc1ccc(S(=O)(=O)Nn2c3c(cc(C#N)c2=O)CCCC3)cc1`, the EC50 is above 200 µM and the IC50 is above 200 µM. As for `COC(Cc1ccccc1)NC(C)=O` (stereo not drawn), the EC50 was above 200 µM and the concentration for half-maximal inhibition (IC50) came to 186 µM. Turning to `OCC(S)CS` (stereo not drawn), the EC50 was above 151 µM and the IC50 was 72.4 µM. For the compound `Cc1cc(NC2=NCCO2)c2c(c1C)CCCC2`, the EC50 is above 200 µM and the IC50 was 29.5 µM. On to `COC(=O)N[C@H](C(=O)O)C(C)O[Si](C)(C)C(C)(C)C` (stereo partly drawn), for which the EC50 was above 851 µM and the IC50 is above 851 µM. As for `COc1cc(O)c2c(c1)C(=O)C=C(Cl)C2=O`, the outcome was inactive. `CNC(=S)NNC1=NCCCN1`: the EC50 is above 200 µM and the IC50 was above 200 µM. For the compound `COc1cc2c(cc1OC)C(C(=O)c1cccc(OC)c1OC)C(=O)N(C)CC2` (stereo not drawn), the EC50 was above 126 µM and the IC50 is above 126 µM.

`COC(=O)CN1SC2(SC13C(C)(C)C(=O)C3(C)C)C(C)(C)C(=O)C2(C)C`: the EC50 was above 200 µM and the 50% inhibitory concentration (IC50) was 50.1 µM.

For `COc1c(Br)cc(Br)c(OC)c1-c1ccc[nH]1`, the EC50 was above 38 µM and the IC50 was above 38 µM. Turning to `CC1(C)C(=O)C2(C(=O)O)CCC1C2` (stereo not drawn), the EC50 is above 200 µM and the IC50 is above 200 µM. In the case of `CC(C)C1N2CCCCC2[C@@H]2c3[nH]c4ccccc4c3CCN12` (stereo partly drawn), the EC50 was above 81.3 µM and the half-inhibitory concentration (IC50) is above 81.3 µM. With `c1ccc2c(-c3cccc4ccccc34)cccc2c1`, the EC50 was above 200 µM and the IC50 was above 200 µM.
